The source of these data is patent US11020391B2, “CRMP2 sumoylation inhibitors and uses thereof” (ARIZONA BOARD OF REGENTS ON BEHALF OF THE UNIVERSITY OF …, priority 2015, dated 2021).

Data set [1] can be described thus: PK profile of compound AZ002. To be noted: in vivo. The text has this:
In some instances, compounds of the invention are provided as a pharmaceutical acceptable salt. Suitable pharmaceutical acceptable salts include those disclosed herein. In some embodiments, pharmaceutically acceptable salts of compounds of the invention provide a better pharmacokinetics.

Data set [2] concerns TTX-S NaV1.7 currents in rat DRGs. Kind of data set: Patch clamp TTX-S NaV1.7 currents in rat DRGs. It is filed as cell-based. To be noted: FIG. 5. How it is done:
Culturing and Transfection of rat Primary Dorsal Root Ganglia (DRG) Neurons: Rat DRG neurons were isolated from 150-174 g Sprague-Dawley rats and then transfected using known procedures. In brief, removing dorsal skin and muscle and cutting the vertebral bone processes parallel to the dissection stage exposed DRGs. DRGs were then collected, trimmed at their roots, and digested in 3 ml bicarbonate free, serum free, sterile DMEM (Cat #11965, Thermo Fisher Scientific, Waltham, Mass.) solution containing neutral protease (3.125 mg·ml-1, Cat #LS02104, Worthington, Lakewood, N.J.) and collagenase Type I (5 mg·ml-1, Cat #LS004194, Worthington, Lakewood, N.J.) and incubated for 45 min at 37° C. under gentile agitation. Dissociated DRG neurons (˜1.5×106) were then gently centrifuged to collect cells and washed with DRG media DMEM containing 1% penicillin/streptomycin sulfate from 10 000 μg/ml stock, 30 ng.ml-1 nerve growth factor, and 10% fetal bovine serum (Hyclone). Collected cells were re-suspended in Nucleofector transfection reagent containing plasmids or siRNA at the working concentrations listed above. Then, cells were subjected to electroporation protocol O-003 in an Amaxa Biosystem (Lonza, Basel, Switzerland) and plated onto poly-D-lysine—and laminin-coated glass 12- or 15-mm coverslips. Transfection efficiencies were routinely between 20% and 30% with about ˜10% cell death. […]

Data set [3] deals with TTX-S NaV1.7 currents in human DRGs. Description: Patch clamp H-infinity subtracted NaV1.7 currents in human DRGs. The class given is cell-based. The conditions noted are these: FIG. 5. How it is done:
Patch Clamp Electrophysiology: Whole cell voltage clamp and current clamp recordings were performed at room temperature using an EPC 10 Amplifier-HEKA. The internal solution for voltage clamp CAD cell recordings contained (in mM): 110CsCl, 5 MgSO4, 10 EGTA, 4 ATP Na2-ATP, and 25 HEPES (pH 7.3, 290-310 mOsm/L) and external solution contained (in mM): 100 NaCl, 10 tetraethylammonium chloride, 1 CaCl2, 1 CdCl2, 1 MgCl2, 10 D-glucose, 4 4-aminopyridine, 0.1 NiCl2, 10 HEPES (pH 7.3, 310-315 mosM/L). For DRG and HEK293 cells the internal solution for voltage clamp contained (in mM): 140CsF, 1.1Cs-EGTA, 10 NaCl, and 15 HEPES (pH 7.3, 290-310 mOsm/L) and external solution contained (in mM): 140 NaCl, 3 KCl, 30 tetraethylammonium chloride, 1 CaCl2, 0.5 CdCl2, 1 MgCl2, 10 D-glucose, 10 HEPES (pH 7.3, 310-315 mosM/L). […]
Voltage clamp protocols: CAD and HEK293 cells were subjected to current-density (I-V) and fast-inactivation voltage protocols. […] The TTX-R peak current density was always measured at depolarizations near 0 mV and within 10 ms of the voltage step protocol. […] Thus, sodium current present at 150 ms following a voltage pulse to −60 mV was analyzed, an established method of isolating Nav1.9 current. […]

Data set [4] has as its system human DRGs in a mixed glia-DRG co-culture. Description: Cell morphology or health of human DRGs after overnight incubation. It is filed as cell-based.
Data set [5] has as its system spared nerve injury model of neuropathic pain. Description: Spared nerve injury model, mechanical hypersensitivity (paw withdrawal threshold). It is filed as in vivo, rat. The conditions noted are these: spinal administration 5 μg/10 μL; 7 days post-injury; n=6. How it is done:
Rat Behavioral Pain Assay: Compound AZ002 reversed mechanical hypersensitivity in a model of nerve-injury induced chronic pain.
Data was analyzed using one-way ANOVA followed by Dunnett's Multiple Comparison Test using post injury baseline as control.
Indwelling intrathecal catheter: Rats were anesthetized (ketamine/xylazine anesthesia, 80/12 mg/kg i.p.; Sigma-Aldrich) and placed in a stereotaxic head holder. The cisterna magna was exposed and incised, and an 8-cm catheter (PE-10; Stoelting) was implanted terminating in the lumbar region of the spinal cord. Catheters were sutured (3-0 silk suture) into the deep muscle and externalized at the back of the neck; skin was closed with autoclips. After a recovery period of 5-7 days after implantation of the indwelling cannula, the spared nerve injury was induced.
Spared Nerve Injury (SNI): Under isoflurane anesthesia (5% induction, 2.0% maintenance in 2 L/min air), skin on the lateral surface of the left hind thigh was incised. […]
Mechanical Allodynia: Rats were allowed to acclimate within suspended wire mesh cages for 30 minutes prior to behavioral assessment. […] Paw withdrawal thresholds were calculated in grams using the Dixon non-parametric test and expressed as the Paw Withdrawal Threshold (mean±standard error; SEM) in GraphPad Prism 6.0. […]

On to `COc1cc(OC)cc(C(=O)Nc2ccc(N3CCN(C)CC3)cc2)c1` [AZ002], for which, in data set [1], the concentration peaked (Cmax) at 263 ng/mL, the Tmax turned out to be 2 h and the half-life is 5.8 h. The molecule also registered an AUC(0-t) in data set [1] (0-24 hr) of 2380 ng·h/mL. Further, the bioavailability in data set [1] (read-out: bioavailability (F)) came out at 31%. Moreover, the “inhibition of TTX-S NaV1.7 currents” value in data set [2] is reported as “inhibits”. Moreover, the “inhibition of TTX-S NaV1.7 currents” value in data set [3] is reported as “inhibits”. For the same molecule, in data set [4], the “effect on cell morphology or health” value is “does not affect cell morphology or health”. Further, in data set [5], the “reversal of mechanical hypersensitivity” value was “significantly reversed”.
